Literature values, collected in patent publication US20220267753A1, “RATIONAL THERAPEUTIC TARGETING OF ONCOGENIC IMMUNE SIGNALING STATES IN MYELOID MALIGNANCIES VIA THE UBIQUITIN CONJUGATING ENZYME UBE2N” (CHILDREN'S HOSPITAL MEDICAL CENTER, priority 2019, published 2022).

Target: T1, UBE2N (Homo sapiens, UniProt P61088)
T1 sequence (P61088 1-152): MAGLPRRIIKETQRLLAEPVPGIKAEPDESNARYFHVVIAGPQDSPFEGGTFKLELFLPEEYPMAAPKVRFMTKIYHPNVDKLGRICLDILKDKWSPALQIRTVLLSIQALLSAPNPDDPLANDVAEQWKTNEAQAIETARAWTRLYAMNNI
Conditions: cited from earlier work; for inhibition of UBE2N by covalent reaction with Cys-87: reference [16]; for selectivity among cysteine-containing ubiquitin enzymes: references [23-25]

SMILES | inhibition of UBE2N by covalent reaction with Cys-87 | selectivity among cysteine-containing ubiquitin enzymes
Cc1ccc(S(=O)(=O)/C=C/C#N)cc1 [BAY11-7082] | irreversible inhibition of UBE2N | non-selective inhibitors
Cc1ccc(S(=O)(=O)c2ccc([N+](=O)[O-])o2)cc1 [NSC697923, 2-(4-methylphenyl)sulfonyl-5-nitrofuran] | irreversible inhibition of UBE2N | non-selective inhibitors
